Data on 3 compounds can be found in patent US20160044917A1, “LOW ENVIRONMENTAL IMPACT PESTICIDE MADE FROM "GRAS" INGREDIENTS FOR USE AGAINST COQUI FROGS AND OTHER SPECIES” (priority 2015, published 2016).

Read-outs that look alike come from different tables or passages of the source.

The test system of one data set is common plants. The note with it: citric acid 25%, three days after treatment, cited from earlier work.
The subject of the next data set is frogs. Briefly: Frog killing time with different concentrations. It counts as in vivo. The conditions noted are these: concentrations from about 5% to about 10%. As to the method: Additionally, this formulation killed 10 out of 10 frogs within about 15 minutes. More over, concentrations using proprionic acid ranging from about 5% to about 10% were lethal to the frogs in the test group.

For the next data set, the system named is human skin. Briefly: Contact of acid solution with human skin or hand. It is filed as in vivo. The conditions noted are these: solution with a pH of less than 0.5. As to the method:
As discussed above, AGIIS has relatively less dehydrating properties (such as charring sucrose) as compared to the saturated solution of CaSO4 in the same concentration of H2SO4. […] AGIIS has low volatility at room temperature and pressure.
In view of the need to find new phytogenic friendly alternatives for controlling the spread of Coqui frogs, a commercially available food sanitation product (i.e. Acidic Calcium Sulfate (“ACS”) was evaluated for inclusion in the current inventory of chemicals that can be applied as sprays. ACS and functional equivalents thereof are made from ingredients that are generally regarded as safe (“GRAS”), and is approved for use in food by the FDA and USDA. Although not wanting to be bound by theory, the efficacy of this product stems from its very unique characteristic of being able to donate a very high activity of hydrogen ions (low pH), while at the same time, having very low oxidative effects on plants and human skin. For example, a five (5) normal concentration of ACS having a pH of approximately zero may be held in the human hand without harm to the person holding the acid. In contrast, when very small amounts are applied to the skin of Coqui frogs it is quickly absorbed and respiration is immediately impaired with lethal results. […]

Regarding `O=C(O)CC(O)(CC(=O)O)C(=O)O` [citric acid], the phytotoxicity rating entry in the data set on common plants (bromeliad) was “moderate”; in the data set on common plants (calathea), “severe”; in the data set with common plants (dendrobium orchid), “moderate”; in the data set on common plants (eggplants) it was “severe”; in the data set on common plants (guava plant), “moderate”; in the data set with common plants (leatherleaf fern) it was “moderate”. Further, the phytotoxicity rating result in the data set on common plants (passion fruit) is reported as “slight”; with common plants (payaya), “slight”; with common plants (streptocarpus), “severe”.
For the compound `CCC(=O)O` [propionic acid], in the data set with frogs, the “lethality to the frogs in the test group” value is “lethal”.
Turning to `O=S(=O)(O)O` [sulfuric acid], the “effect on hand put into the solution” value in the data set with human skin is on record as “an irritation would occur”.
